These results are taken from ChEMBL document CHEMBL1150258, “Predicting binding modes from free energy calculations” (J Med Chem, 2008).

As a reminder, the IC50 is the concentration that gives 50% inhibition. High values mean lower potency, low ones higher potency.

The test concerns the target Human immunodeficiency virus type 1 reverse transcriptase (Human immunodeficiency virus 1, UniProt Q72547). The test can be described thus: Inhibition of HIV1 reverse transcriptase in […]. The test is classed as cell-based.
`CCc1c(C)[nH]c(=O)c(N(C)CCOC)c1Cc1cc(C)cc(C)c1`: the midpoint of inhibition, the IC50, lay at 2 nM.

`CCNc1c(Cc2cc(C)cc(C)c2)c(CC)c(C)[nH]c1=O` yielded an IC50 of 16 nM.

The compound `CCc1c(C)[nH]c(=O)c(N(C)CCO)c1Cc1cccc(C)c1` came in with an IC50 of 5 nM.

In turn, `CCc1c(C)[nH]c(=O)c(-n2cccc2)c1Cc1cc(C)cc(C)c1` showed an IC50 of 12.6 nM.

`CCCNc1c(Cc2cc(C)cc(C)c2)c(CC)c(C)[nH]c1=O` registered a concentration for half-maximal inhibition (IC50) of 20 nM.

With `CCc1c(C)[nH]c(=O)c(NC(N)=S)c1Cc1cccc(C)c1`, the IC50 was 316 nM.

`CCc1c(C)[nH]c(=O)c(N(CC)CC)c1Cc1cc(C)cc(C)c1` came in with an IC50 of 16 nM.

Turning to `CCc1c(C)[nH]c(=O)c(N(C)CCCSC)c1Cc1cc(C)cc(C)c1`, half-maximal inhibition (IC50) was put at 25 nM.

Compound `CCCN(C)c1c(Cc2cc(C)cc(C)c2)c(CC)c(C)[nH]c1=O` registered an IC50 of 16 nM.

Regarding `CCCCN(CCCC)c1c(Cc2cc(C)cc(C)c2)c(CC)c(C)[nH]c1=O`, the IC50 came to 50100 nM.

On to `CCc1c(C)[nH]c(=O)c(N(C)CC)c1Cc1cccc(/C=C/C#N)c1`, for which 1 nM corresponded to half-maximal inhibition (IC50).

Consider `CCCC(=O)Nc1c(Cc2cc(C)cc(C)c2)c(CC)c(C)[nH]c1=O`, for which the 50% inhibitory concentration (IC50) was found to be 100000 nM.

`CCc1c(C)[nH]c(=O)c(NC(=S)Nc2ccccc2)c1Cc1cccc(C)c1` showed a half-maximal inhibitory concentration (IC50) of 3160 nM.

In the case of `CCc1c(C)[nH]c(=O)c(N(C)C(C)COC)c1Cc1cc(C)cc(C)c1` (centres undefined), the midpoint of inhibition, the IC50, lay at 6 nM.

As to `CCc1c(C)[nH]c(=O)c(N(C)CCOC)c1Cc1cccc(/C=C/C#N)c1`, the 50% inhibitory concentration (IC50) was 1 nM.

Compound `CCc1c(C)[nH]c(=O)c(N(C)CCOC)c1Cc1cccc(C)c1` came in with a half-inhibitory concentration (IC50) of 1 nM.

`CCc1c(C)[nH]c(=O)c(N(Cc2ccccc2)Cc2ccccc2)c1Cc1cc(C)cc(C)c1`: the IC50 was determined as 100000 nM.

Compound `CCc1c(C)[nH]c(=O)c(N2CCCCC2)c1Cc1cc(C)cc(C)c1` came in with a 50% inhibitory concentration (IC50) of 631 nM.

Compound `CCCCNc1c(Cc2cc(C)cc(C)c2)c(CC)c(C)[nH]c1=O` yielded an IC50 of 126 nM.

Take `CCC(=O)Nc1c(Cc2cc(C)cc(C)c2)c(CC)c(C)[nH]c1=O`: the half-inhibitory concentration (IC50) came to 3980 nM.

As for `CCc1c(C)[nH]c(=O)c(N(C)CC#N)c1Cc1cccc(C)c1`, half-maximal inhibition (IC50) required 4 nM.

As to `CCc1c(C)[nH]c(=O)c(N(C)CCCC#N)c1Cc1cccc(C)c1`, it took 5 nM to reach half-maximal inhibition (IC50).

`CCNC(=S)Nc1c(Cc2cccc(C)c2)c(CC)c(C)[nH]c1=O` gave an IC50 of 25100 nM.

`CCc1c(C)[nH]c(=O)c(N(C)CCC#N)c1Cc1cccc(C)c1` showed a concentration for half-maximal inhibition (IC50) of 16 nM.

The compound `CCc1c(C)[nH]c(=O)c(N(C)CCCCCO)c1Cc1cccc(C)c1` yielded an IC50 of 10 nM.

For `CCc1c(C)[nH]c(=O)c(N(C)CCCCCO)c1Cc1cc(C)cc(C)c1`, it took 4 nM to reach half-maximal inhibition (IC50).

`CCOCCN(C)c1c(Cc2cccc(C)c2)c(CC)c(C)[nH]c1=O` showed an IC50 of 13 nM.

Turning to `CCc1c(C)[nH]c(=O)c(N(C)CCCO)c1Cc1cccc(C)c1`, the 50% inhibitory concentration (IC50) came to 3 nM.

In turn, `CCc1c(C)[nH]c(=O)c(NC)c1Cc1cc(C)cc(C)c1` displayed an IC50 of 10 nM.

Compound `CCc1c(C)[nH]c(=O)c(NC=O)c1Cc1cc(C)cc(C)c1` registered an IC50 of 79 nM.

In turn, `CCc1c(C)[nH]c(=O)c(NCc2ccccc2)c1Cc1cc(C)cc(C)c1` showed a 50% inhibitory concentration (IC50) of 251 nM.

The compound `CCc1c(C)[nH]c(=O)c(N(C)CC)c1Cc1cc(C)cc(C)c1` yielded a 50% inhibitory concentration (IC50) of 8 nM.

`CCc1c(C)[nH]c(=O)c(NC(C)=O)c1Cc1cc(C)cc(C)c1` yielded an IC50 of 398 nM.

As to `CCc1c(C)[nH]c(=O)c(N2CCOCC2)c1Cc1cc(C)cc(C)c1`, 158 nM corresponded to half-maximal inhibition (IC50).
